Tested on: phosphatidyl ethanolamine
Test: Biacore affinity for phosphatidyl ethanolamine (POPE/POPC liposomes captured on L1 chip)
Type: binding
Settings: Biacore 3000, L1 chip, POPE/POPC liposomes (20% PE)
Excerpt: A Biacore 3000 (GE Healthcare, Uppsala) was equipped with an L1 chip. Liposomes made of POPE/POPC (20% PE) were applied for the affinity study using the capture technique recommended by the manufacturer. Each run consisted of activation of the chip surface, immobilization of liposomes, binding of peptide and wash off of both liposomes and peptide (regeneration). Similar applications can be found in Frostell-Karlsson et al [Pharm. Sciences, V.94 (1), (2005)]. Thorough washing of needle, tubing and liquid handling system with running buffer was performed after each cycle.
BIACORE software: The BIACORE control software including all method instructions was applied. A method with commands was also written in the BIACORE Method Definition Language (MDL) to have full control over pre-programmed instructions. BIACORE evaluation software was applied for analysing the sensorgrams.

Duramycin
ka: ~20000 M⁻¹ s⁻¹
